Measurements taken from patent US20090202698A1, “OLIGOPEPTIDES FOR USE AS TASTE MODULATORS” (Nutrinova Nutrition Specialties & Food Ingredients GmbH, priority 2008, published 2009).

Target: T1, human T1R2/T1R3 taste receptor (Homo sapiens, UniProt Q7RTX0+Q8TE23)
T1 construct: the cDNA for the receptors ht1R2 and ht1R3 and the cDNA for the blasticidin S deaminase gene have been cloned; expressed in transfected cells; host or cells: HEK293 stably expressing mouse G-alpha-15, stably transfected with the tricistronic vector pTrix-Eb-R2R3 (blasticidin selection)
T1 sequence (Q8TE23 20-839): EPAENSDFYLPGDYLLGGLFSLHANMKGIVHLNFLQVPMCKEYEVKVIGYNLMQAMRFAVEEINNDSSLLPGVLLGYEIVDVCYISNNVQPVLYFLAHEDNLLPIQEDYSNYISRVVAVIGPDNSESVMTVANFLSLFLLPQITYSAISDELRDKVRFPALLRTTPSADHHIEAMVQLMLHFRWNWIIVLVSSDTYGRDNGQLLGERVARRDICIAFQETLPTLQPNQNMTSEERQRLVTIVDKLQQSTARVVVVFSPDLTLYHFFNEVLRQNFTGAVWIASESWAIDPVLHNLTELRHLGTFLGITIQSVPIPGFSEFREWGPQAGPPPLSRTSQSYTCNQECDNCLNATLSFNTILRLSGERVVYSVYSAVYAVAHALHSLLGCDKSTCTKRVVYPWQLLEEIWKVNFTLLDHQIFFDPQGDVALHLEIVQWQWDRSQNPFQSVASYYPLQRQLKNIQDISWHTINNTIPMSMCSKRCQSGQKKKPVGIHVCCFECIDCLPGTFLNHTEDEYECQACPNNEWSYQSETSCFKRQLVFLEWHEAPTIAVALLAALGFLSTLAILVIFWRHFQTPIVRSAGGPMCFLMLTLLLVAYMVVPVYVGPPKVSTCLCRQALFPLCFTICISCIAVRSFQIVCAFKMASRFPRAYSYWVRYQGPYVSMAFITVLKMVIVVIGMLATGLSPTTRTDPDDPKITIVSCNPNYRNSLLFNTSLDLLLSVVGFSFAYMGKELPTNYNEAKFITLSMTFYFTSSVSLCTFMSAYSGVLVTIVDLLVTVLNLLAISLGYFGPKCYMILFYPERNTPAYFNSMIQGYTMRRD
T1 sequence (Q7RTX0 21-852): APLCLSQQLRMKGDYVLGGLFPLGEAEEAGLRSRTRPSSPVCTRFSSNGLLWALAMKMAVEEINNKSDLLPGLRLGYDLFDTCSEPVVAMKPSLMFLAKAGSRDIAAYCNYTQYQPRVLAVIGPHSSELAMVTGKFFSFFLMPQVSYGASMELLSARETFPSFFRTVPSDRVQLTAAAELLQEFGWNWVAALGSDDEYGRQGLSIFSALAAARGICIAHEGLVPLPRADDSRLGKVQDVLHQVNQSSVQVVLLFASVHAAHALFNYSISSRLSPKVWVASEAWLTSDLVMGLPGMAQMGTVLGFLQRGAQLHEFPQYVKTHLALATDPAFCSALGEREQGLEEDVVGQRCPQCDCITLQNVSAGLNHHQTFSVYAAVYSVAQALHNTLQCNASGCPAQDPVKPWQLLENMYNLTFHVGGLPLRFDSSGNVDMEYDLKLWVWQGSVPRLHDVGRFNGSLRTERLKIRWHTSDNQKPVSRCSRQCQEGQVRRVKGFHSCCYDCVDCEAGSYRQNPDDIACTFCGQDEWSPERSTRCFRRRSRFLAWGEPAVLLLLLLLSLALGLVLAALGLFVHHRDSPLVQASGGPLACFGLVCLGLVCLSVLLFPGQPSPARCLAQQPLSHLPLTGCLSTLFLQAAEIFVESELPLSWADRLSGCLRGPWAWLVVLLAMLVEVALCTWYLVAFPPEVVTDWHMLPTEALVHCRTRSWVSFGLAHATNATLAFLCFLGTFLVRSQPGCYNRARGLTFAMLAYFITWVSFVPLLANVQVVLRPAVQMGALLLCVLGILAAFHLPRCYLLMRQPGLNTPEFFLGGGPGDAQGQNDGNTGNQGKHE
Assay: Recombinant human T1R2/T1R3 taste receptor dependent calcium (Fluo-4 AM) cell based assay in stable HEK293 cells
Method: Fluo-4 AM assay with stable HEK293 cells—Stable cells are maintained in DMEM high-glucose medium (Invitrogen) supplemented with 10% fetal bovine serum (Biochrom) and 4 mM L-glutamine (Invitrogen). Cells for calcium imaging are maintained in DMEM low-glucose medium supplemented with 10% FBS and 1× Glutamax-1 (Invitrogen) for 48 hours before seeding. These stable cells are trypsinized after 48 hours (either with Trypsin-EDTA, Accutase or TrypLE) and seeded onto poly-D-lysine coated 96-well assay plates (Corning) at a density of 45,000 cells/well in DMEM low-glucose medium supplemented with 10% FBS and 1× Glutamax-1.
After 24 hours, the cells were loaded in 100 μl medium with additional 100 μl of 4 μM Fluo-4 (calcium sensing dye, 2 μM end concentration; Molecular Probes) in Krebs-HEPES (KH)-buffer for 1 hour. The loading reagent is then replaced by 80 μl KH-buffer per well. The Krebs-HEPES-buffer (KH-buffer) is a physiological saline solution including 1.2 mM CaCl2, 4.2 mM NaHCO3 and 10 mM HEPES.
The dye-loaded stable cells in plates were placed into a fluorescence microtiter plate reader to monitor fluorescence (excitation 488 nm, emission 520 nm) change after the addition of 20 μl KH-buffer supplemented with 5x tastants. For each trace, tastant was added 11.5 seconds after the start of the scan and mixed two times with the buffer, scanning continued for an additional 32 seconds, and data were collected every second.
Data analysis/Data recording—Calcium mobilization was quantified as the change of peak fluorescence OF) over the baseline level (F). Data were expressed as the mean S.E. of the )F/F value of replicated independent samples. The analysis was done with the software of the microtiter plate reader.
To analyze the function and activity of aladapcin the heterodimeric T1R2/T1R3 sweet taste receptor has been utilized in a calcium dependent cell based assay. T1R type taste receptors have been transfected with the multicistronic plasmid vector pTrix-Eb-R2R3 in a HEK293 cell line stably expressing the promiscuous mouse G-alpha-15 G-protein. […]

aladapcin activity on sweet taste receptors (activity as sweet enhancer): amplification of fructose (in the presence of 25 mM fructose, Fluo4-AM fluorescence increase, HEK293 cells expressing G-alpha-15, human T1R2 and T1R3, FIG. 2) | sweetener potential (receptor activation by the compound alone) (without the presence of fructose (control measurement), range 0.1-25 μm, FIG. 3) | activation of the sweet taste receptors by the sweetener alone (25 mM fructose (4.5 g/l), preexaminations) | Compound
dose dependent | no sweetener potential |  | CC(NC(=O)C(C)NC(=O)C(N)CCCC(N)C(N)=O)C(=O)O (stereo not drawn) [Aladapcin, 2-[2-[(2,6-diamino-6-carbamoyl-hexanoyl)-amino]propanoylamino]propanoic acid]
 |  | barely activating | O=C(CO)[C@@H](O)[C@H](O)[C@H](O)CO [fructose, reference compound]
